Where a SMILES comes first, the peptide text is derived from it. Bridges are numbered along the chain shown (N, C = ends). [ ]: non-standard residue; d: D form. The star is where a group is joined. X1 = NC[C@@H](CC(=O)*)c1cccc(Cl)c1; Dab = NCC[C@H](N)C(=O)O; Dap = NC[C@H](N)C(=O)O
What was measured:
E. coli BW25113-ΔacrB = assay: AcrAB-TolC efflux deficiency screen, relative MIC; format: cell-based, Escherichia coli; details: ΔacrB vs wild-type
How it was run: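 Broth microdilution in MHB (supplemented MS for SCH79797), ten-step antibiotic dilutions, 5 × 10^5 cells/mL, 18 h at 37 °C with shaking; MIC is lowest concentration giving background-corrected OD600 < 0.05. Relative MIC as log2 ratio: ΔacrB vs wild-type; pUCacrAB vs empty pUC118 (plasmid strains under 100 µg/mL ampicillin). Mean of 3 biological replicates.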

[1] = test system: K. pneumoniae ATCC 10031 (SEN) and K. pneumoniae ATCC 700603 (MDR); assay: Adaptive laboratory evolution (ALE), relative MIC of evolved lines; format: cell-based, Klebsiella pneumoniae
How it was run: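 Ten parallel populations per antibiotic–ancestor pair were evolved in MHB at 37 °C, starting near 50% growth-inhibiting drug. Every 72 h they were passaged into 0.5–2.5× increasing concentrations, keeping the highest-drug well with OD600 > 0.2.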

[2] = KP-MDR (Klebsiella pneumoniae ATCC 700603), evolved line 2
[3] = KP-MDR (Klebsiella pneumoniae ATCC 700603), evolved line 4
[4] = KP-MDR (Klebsiella pneumoniae ATCC 700603), evolved line 6
[5] = KP-MDR (Klebsiella pneumoniae ATCC 700603), evolved line 8
[6] = KP-MDR (Klebsiella pneumoniae ATCC 700603), evolved line 10
[7] = KP-SEN (Klebsiella pneumoniae ATCC 10031), evolved line 1
[8] = KP-SEN (Klebsiella pneumoniae ATCC 10031), evolved line 3
[9] = KP-SEN (Klebsiella pneumoniae ATCC 10031), evolved line 4
[10] = KP-SEN (Klebsiella pneumoniae ATCC 10031), evolved line 6
[11] = KP-SEN (Klebsiella pneumoniae ATCC 10031), evolved line 10

`CC(C)C[C@@H]1NC(=O)[C@@H](Cc2ccccc2)NC(=O)[C@H](CCN)NC(=O)[C@@H](NC(=O)[C@H](CN)NC(=O)[C@@H](NC(=O)C[C@H](CN)c2cccc(Cl)c2)[C@@H](C)O)CCNC(=O)[C@H]([C@@H](C)O)NC(=O)[C@H](CCN)NC(=O)[C@H](CCN)NC1=O` [SPR206] (X1-T[Dap][Dab][Dab][dF]L[Dab][Dab]T; lactam 3-C (inferred); N-terminus assumed) was tested, and the “Relative MIC (log2)” value (E. coli BW25113-ΔacrB; replicate 1) was 0, the “Relative MIC (log2)” value (E. coli BW25113-ΔacrB; replicate 2) was 0 and the “Relative MIC (log2)” value (E. coli BW25113-ΔacrB; replicate 3) was 0. The “Relative MIC” value ([1]; ALE, K. pneumoniae ATCC 700603 (KP-MDR), evolved line 7) was 512, the “Relative MIC” value ([1]; ALE, K. pneumoniae ATCC 700603 (KP-MDR), evolved line 8) was 1024 and the “Relative MIC” value ([1]; ALE, K. pneumoniae ATCC 700603 (KP-MDR), evolved line 9) was 1024. For the same molecule, the “Relative MIC” value ([1]; ALE, K. pneumoniae ATCC 700603 (KP-MDR), evolved line 10) was 512, the “Relative MIC” value ([1]; ALE, Klebsiella pneumoniae ATCC 10031 (KP-SEN), evolved line 1) was 2048 and the “Relative MIC” value ([1]; ALE, Klebsiella pneumoniae ATCC 10031 (KP-SEN), evolved line 2) was 2. The “Relative MIC” value ([1]; ALE, Klebsiella pneumoniae ATCC 10031 (KP-SEN), evolved line 3) was 2048, the “Relative MIC” value ([1]; ALE, Klebsiella pneumoniae ATCC 10031 (KP-SEN), evolved line 4) was 2048 and the “Relative MIC” value ([1]; ALE, Klebsiella pneumoniae ATCC 10031 (KP-SEN), evolved line 6) was 2048. The “Relative MIC” value ([1]; ALE, Klebsiella pneumoniae ATCC 10031 (KP-SEN), evolved line 7) was 2, the “Relative MIC” value ([1]; ALE, Klebsiella pneumoniae ATCC 10031 (KP-SEN), evolved line 8) was 2 and the “Relative MIC” value ([1]; ALE, Klebsiella pneumoniae ATCC 10031 (KP-SEN), evolved line 10) was 2048. The “Relative MIC” value ([1]; ALE, Klebsiella pneumoniae ATCC 700603 (KP-MDR), evolved line 1) was 256, the “Relative MIC” value ([1]; ALE, Klebsiella pneumoniae ATCC 700603 (KP-MDR), evolved line 2) was 1024 and the “Relative MIC” value ([1]; ALE, Klebsiella pneumoniae ATCC 700603 (KP-MDR), evolved line 3) was 512. The “Relative MIC” value ([1]; ALE, Klebsiella pneumoniae ATCC 700603 (KP-MDR), evolved line 4) was 256, the “Relative MIC” value ([1]; ALE, Klebsiella pneumoniae ATCC 700603 (KP-MDR), evolved line 5) was 256 and the “Relative MIC” value ([1]; ALE, Klebsiella pneumoniae ATCC 700603 (KP-MDR), evolved line 6) was 512. The MIC of evolved line ([1]; KP-MDR (K. pneumoniae ATCC 700603), evolved line 1 of the given antibiotic) was 128 µg/mL, the “Relative MIC” value ([1]; KP-MDR (K. pneumoniae ATCC 700603), evolved line 1 vs ancestor) was 256 and the MIC of evolved line ([1]; KP-MDR (K. pneumoniae ATCC 700603), evolved line 2 of the given antibiotic) was 512 µg/mL. The “Relative MIC” value ([1]; KP-MDR (K. pneumoniae ATCC 700603), evolved line 2 vs ancestor) was 1024, the MIC of evolved line ([1]; KP-MDR (K. pneumoniae ATCC 700603), evolved line 3 of the given antibiotic) was 256 µg/mL and the “Relative MIC” value ([1]; KP-MDR (K. pneumoniae ATCC 700603), evolved line 3 vs ancestor) was 512. For the same molecule, the MIC of evolved line ([1]; KP-MDR (K. pneumoniae ATCC 700603), evolved line 4 of the given antibiotic) was 128 µg/mL, the “Relative MIC” value ([1]; KP-MDR (K. pneumoniae ATCC 700603), evolved line 4 vs ancestor) was 256 and the MIC of evolved line ([1]; KP-MDR (K. pneumoniae ATCC 700603), evolved line 5 of the given antibiotic) was 128 µg/mL. For the same molecule, the “Relative MIC” value ([1]; KP-MDR (K. pneumoniae ATCC 700603), evolved line 5 vs ancestor) was 256, the MIC of evolved line ([1]; KP-MDR (K. pneumoniae ATCC 700603), evolved line 6 of the given antibiotic) was 256 µg/mL and the “Relative MIC” value ([1]; KP-MDR (K. pneumoniae ATCC 700603), evolved line 6 vs ancestor) was 512. For the same molecule, the MIC of evolved line ([1]; KP-MDR (K. pneumoniae ATCC 700603), evolved line 7 of the given antibiotic) was 256 µg/mL, the “Relative MIC” value ([1]; KP-MDR (K. pneumoniae ATCC 700603), evolved line 7 vs ancestor) was 512 and the MIC of evolved line ([1]; KP-MDR (K. pneumoniae ATCC 700603), evolved line 8 of the given antibiotic) was 512 µg/mL. The “Relative MIC” value ([1]; KP-MDR (K. pneumoniae ATCC 700603), evolved line 8 vs ancestor) was 1024, the MIC of evolved line ([1]; KP-MDR (K. pneumoniae ATCC 700603), evolved line 9 of the given antibiotic) was 512 µg/mL and the “Relative MIC” value ([1]; KP-MDR (K. pneumoniae ATCC 700603), evolved line 9 vs ancestor) was 1024. The MIC of evolved line ([1]; KP-MDR (K. pneumoniae ATCC 700603), evolved line 10 of the given antibiotic) was 256 µg/mL, the “Relative MIC” value ([1]; KP-MDR (K. pneumoniae ATCC 700603), evolved line 10 vs ancestor) was 512 and the “Relative MIC” value ([1]; KP-MDR (Klebsiella pneumoniae ATCC 700603), evolved line 1) was 256. The “Relative MIC” value [1, 2] was 1024, the “Relative MIC (log10)” value [1, 2] was 3.0103 log10 and the “Relative MIC” value ([1]; KP-MDR (Klebsiella pneumoniae ATCC 700603), evolved line 3) was 512. For the same molecule, the “Relative MIC” value [1, 3] was 256, the “Relative MIC (log10)” value [1, 3] was 2.408 log10 and the “Relative MIC” value ([1]; KP-MDR (Klebsiella pneumoniae ATCC 700603), evolved line 5) was 256. For the same molecule, the “Relative MIC” value [1, 4] was 512, the “Relative MIC (log10)” value [1, 4] was 2.709 log10 and the “Relative MIC” value ([1]; KP-MDR (Klebsiella pneumoniae ATCC 700603), evolved line 7) was 512. For the same molecule, the “Relative MIC” value [1, 5] was 1024, the “Relative MIC (log10)” value [1, 5] was 3.0103 log10 and the “Relative MIC” value ([1]; KP-MDR (Klebsiella pneumoniae ATCC 700603), evolved line 9) was 1024. For the same molecule, the “Relative MIC” value [1, 6] was 512, the “Relative MIC (log10)” value [1, 6] was 2.709 log10 and the MIC of evolved line ([1]; KP-SEN (K. pneumoniae ATCC 10031), evolved line 1 of the given antibiotic) was 1020 µg/mL. For the same molecule, the “Relative MIC” value ([1]; KP-SEN (K. pneumoniae ATCC 10031), evolved line 1 vs ancestor) was 2048, the MIC of evolved line ([1]; KP-SEN (K. pneumoniae ATCC 10031), evolved line 2 of the given antibiotic) was 1 µg/mL and the “Relative MIC” value ([1]; KP-SEN (K. pneumoniae ATCC 10031), evolved line 2 vs ancestor) was 2. The MIC of evolved line ([1]; KP-SEN (K. pneumoniae ATCC 10031), evolved line 3 of the given antibiotic) was 1020 µg/mL, the “Relative MIC” value ([1]; KP-SEN (K. pneumoniae ATCC 10031), evolved line 3 vs ancestor) was 2048 and the MIC of evolved line ([1]; KP-SEN (K. pneumoniae ATCC 10031), evolved line 4 of the given antibiotic) was 1020 µg/mL. For the same molecule, the “Relative MIC” value ([1]; KP-SEN (K. pneumoniae ATCC 10031), evolved line 4 vs ancestor) was 2048, the MIC of evolved line ([1]; KP-SEN (K. pneumoniae ATCC 10031), evolved line 6 of the given antibiotic) was 1020 µg/mL and the “Relative MIC” value ([1]; KP-SEN (K. pneumoniae ATCC 10031), evolved line 6 vs ancestor) was 2048. For the same molecule, the MIC of evolved line ([1]; KP-SEN (K. pneumoniae ATCC 10031), evolved line 7 of the given antibiotic) was 1 µg/mL, the “Relative MIC” value ([1]; KP-SEN (K. pneumoniae ATCC 10031), evolved line 7 vs ancestor) was 2 and the MIC of evolved line ([1]; KP-SEN (K. pneumoniae ATCC 10031), evolved line 8 of the given antibiotic) was 1 µg/mL. The “Relative MIC” value ([1]; KP-SEN (K. pneumoniae ATCC 10031), evolved line 8 vs ancestor) was 2, the MIC of evolved line ([1]; KP-SEN (K. pneumoniae ATCC 10031), evolved line 10 of the given antibiotic) was 1020 µg/mL and the “Relative MIC” value ([1]; KP-SEN (K. pneumoniae ATCC 10031), evolved line 10 vs ancestor) was 2048. For the same molecule, the “Relative MIC” value [1, 7] was 2048, the “Relative MIC (log10)” value [1, 7] was 3.311 log10 and the “Relative MIC” value ([1]; KP-SEN (Klebsiella pneumoniae ATCC 10031), evolved line 2) was 2. The “Relative MIC” value [1, 8] was 2048, the “Relative MIC (log10)” value [1, 8] was 3.311 log10 and the “Relative MIC” value [1, 9] was 2048. For the same molecule, the “Relative MIC (log10)” value [1, 9] was 3.311 log10, the “Relative MIC” value [1, 10] was 2048 and the “Relative MIC (log10)” value [1, 10] was 3.311 log10. The “Relative MIC” value ([1]; KP-SEN (Klebsiella pneumoniae ATCC 10031), evolved line 8) was 2, the “Relative MIC” value [1, 11] was 2048 and the “Relative MIC (log10)” value [1, 11] was 3.311 log10. For the same molecule, the “Relative MIC” value ([1]; KP-SEN, Klebsiella pneumoniae ATCC 10031, evolved line 7) was 2, the “Relative MIC” value ([1]; Klebsiella pneumoniae ATCC 10031 (KP-SEN), evolved line 1) was 2048 and the “Relative MIC” value ([1]; Klebsiella pneumoniae ATCC 10031 (KP-SEN), evolved line 2) was 2. The “Relative MIC” value ([1]; Klebsiella pneumoniae ATCC 10031 (KP-SEN), evolved line 3) was 2048, the “Relative MIC” value ([1]; Klebsiella pneumoniae ATCC 10031 (KP-SEN), evolved line 4) was 2048 and the “Relative MIC” value ([1]; Klebsiella pneumoniae ATCC 10031 (KP-SEN), evolved line 6) was 2048. For the same molecule, the “Relative MIC” value ([1]; Klebsiella pneumoniae ATCC 10031 (KP-SEN), evolved line 7) was 2, the “Relative MIC” value ([1]; Klebsiella pneumoniae ATCC 10031 (KP-SEN), evolved line 8) was 2 and the “Relative MIC” value ([1]; Klebsiella pneumoniae ATCC 10031 (KP-SEN), evolved line 10) was 2048. For the same molecule, the “Relative MIC” value ([1]; Klebsiella pneumoniae ATCC 700603 (KP-MDR), evolved line 1) was 256, the “Relative MIC” value ([1]; Klebsiella pneumoniae ATCC 700603 (KP-MDR), evolved line 2) was 1024 and the “Relative MIC” value ([1]; Klebsiella pneumoniae ATCC 700603 (KP-MDR), evolved line 3) was 512. The “Relative MIC” value ([1]; Klebsiella pneumoniae ATCC 700603 (KP-MDR), evolved line 4) was 256, the “Relative MIC” value ([1]; Klebsiella pneumoniae ATCC 700603 (KP-MDR), evolved line 5) was 256 and the “Relative MIC” value ([1]; Klebsiella pneumoniae ATCC 700603 (KP-MDR), evolved line 6) was 512. The “Relative MIC” value ([1]; Klebsiella pneumoniae ATCC 700603 (KP-MDR), evolved line 7) was 512, the “Relative MIC” value ([1]; Klebsiella pneumoniae ATCC 700603 (KP-MDR), evolved line 8) was 1024 and the “Relative MIC” value ([1]; Klebsiella pneumoniae ATCC 700603 (KP-MDR), evolved line 9) was 1024. The “Relative MIC” value ([1]; Klebsiella pneumoniae ATCC 700603 (KP-MDR), evolved line 10) was 512.

Source: paper PMC11845477, “Exploring the principles behind antibiotics with limited resistance” (Nature Communications, 2025)
